This experiment has as its system C3H10T1/2 cells. The experiment in a line: Adipocyte differentiation: lipid accumulation in induced C3H10T1/2 pre-adipocytes (Bodipy stain, Cellomics ArrayScan). Type of experiment: cell-based. To be noted: for activity at 0.5 µM / activity at 1 µM / activity at 2 µM / activity at 5 µM / activity at 25 µM: Mus musculus, C3H 10T1/2, 168 h, read-out: Cellular lipids (in % of differentiated cells); for activity at 0.5 µM / activity at 1 µM / activity at 2 µM / Cellular lipids (in % of differentiated cells) / activity at 5 µM / activity at 25 µM: 7 days; for Effect on amount of cytoplasmic lipids (in words): single substances, summary of Table 1. The protocol: In the present invention, the effect of agents was identified by using cellular assays that measure the effect on adipocyte differentiation. Adherent pre-adipocyte cells, C3H10T1/2, were used; they were cultured in complete DMEM/FCS, i.e. Dulbecco's modified essential medium (DMEM) supplemented with penicillin/streptomycin [50 U penicillin/ml, […] streptomycin/ml] and 10% fetal calf serum (FCS) and passaged every 3-5 days. For experiments, C3H10T1/2 cells were re-suspended in DMEM/FCS without phenol red and seeded at […] cells/per well in collagen I pre-coated 24-well plates. After 2-3 days cells reached confluence. Culture medium was changed and cell differentiation was induced by adding induction medium consisting of rosiglitazone and insulin (at 50 μmol/L and 200 nmol/L, respectively). In some cases the induction medium consisted of […] dexamethasone and 500 μmol/L 3-isobutyl-1-methylxanthine. Control cells were cultured in DMEM/FCS containing only insulin. Where appropriate, substances were added to the differentiation medium at various concentrations at the time of induction, except for carotenoids which were added at the beginning of culture in order to preload the cells. The induction medium was changed every 2-3-days. Seven days after induction, cells were fixed in 60% isopropanol (40% water). After two washes in phosphate buffered saline (PBS), cells were stained with the neutral lipid stain Bodipy® 493/505 (0.5 μg/ml) and the nuclear stain Hoechst 33342 dye (2 μg/ml) for 30 minutes in the dark. After washing with PBS, the stained cells were stored at 4° C. in PBS. The extent of differentiation was quantified in a Cellomics array™ Array Scan V^Ti (http://www.cellomics.com/) using the Spot Detector BioApplication that had been optimized for detecting lipid accumulation in differentiated adipocytes. Effects of treatments were quantified using the ‘SpotCount’ and ‘SpotCountPerObject’ parameter that adequately reflects the differentiation status of the adipocytes.
The tested compounds were purchased from Sigma (PUFAs, i.e. DHA docosahexaenoic acid; EPA eicosapentaenoic acid) or Cayman Chemicals hydroxytyrosol), from DSM (hydroxytyrosol, resveratrol, genistein) or from Ehrenstorfer GmbH, Augsburg Germany (carotenoids like β-carotene, β-cryptoxanthin, lutein, lycopene, zeaxanithin); rose hip concentrate/powder was purchased from HybenVital (Denmark). The compounds to be tested were dissolved in dimethylsulfoxide (DMSO) or—in the case of carotenoids—in tetrahydrofuran (THF). Cells were preloaded with carotenoids, i.e. these were added to the culture medium when cells were seeded into test plates. Carotenoids were freshly prepared for every experimental series. Vehicle solution was added to reach a final concentration of 0.5% (v/v).
We further tested the effect of substances that were added to cultures concomitantly. The obtained values were then compared to the sum of the effect of individual substances: positive values indicate that two substances interact synergistically and thus surpass the individual effects.

The mark [1] stands for this setting: 0.5 μM carotenoid (cells preloaded) + inducers.
Where [2] appears, read: 1.0 μM carotenoid (cells preloaded) + inducers.
Setting [3] is: 2.0 μM carotenoid (cells preloaded) + inducers.
Setting [4] is: 1 μM compound + inducers of differentiation.
Where [5] appears, read: 5 μM compound + inducers of differentiation.
[6] abbreviates: 25 μM compound + inducers of differentiation.

Like-named read-outs stand apart in the source and are kept apart here.

Take `CC1=C(/C=C/C(C)=C/C=C/C(C)=C/C=C/C=C(C)/C=C/C=C(C)/C=C/C2=C(C)CCCC2(C)C)C(C)(C)CCC1` [beta-carotene, β-carotene]: under setting [1], the activity at 0.5 µM turned out to be 93%. For the same compound, the activity at 1 µM under setting [2] came to 66.7%. Further, the activity at 2 µM under setting [3] is 69.4%.
Take (−)-epigallocatechin gallate [EGCG]: the “Effect on amount of cytoplasmic lipids (in words)” value (“Effect on amount” below) is recorded as “only minor effects”. For the same compound, the “Cellular lipids (in % of differentiated cells)” value under setting [4] came out at 113.1%. Besides, the “Cellular lipids (in % of differentiated cells)” value under setting [5] was 98.9%. Moreover, under setting [6], the “Cellular lipids (in % of differentiated cells)” value is listed as 93.1%.
Regarding `CC1=C(/C=C/C(C)=C/C=C/C(C)=C/C=C/C=C(C)/C=C/C=C(C)/C=C/C2=C(C)C[C@@H](O)CC2(C)C)C(C)(C)CCC1` [β-cryptoxanthin], the “Cellular lipids (in % of differentiated cells)” value runs as follows: under setting [1], 47.5%; under setting [2], 34.9%; under setting [3], 16.2%.
In the same order, the values of `CC1=C(/C=C/C(C)=C/C=C/C(C)=C/C=C/C=C(C)/C=C/C=C(C)/C=C/C2=C(C)C[C@@H](O)CC2(C)C)C(C)(C)C[C@H](O)C1` [zeaxanthin] are 56.8%, 39.5% and 43.7%.
Consider `CC(C)=CCC/C(C)=C/C=C/C(C)=C/C=C/C(C)=C/C=C/C=C(C)/C=C/C=C(C)/C=C/C=C(\C)CCC=C(C)C` [lycopene], for which the activity at 0.5 µM under setting [1] amounted to 44.5%. Moreover, the activity at 1 µM under setting [2] is 45.1%. In addition, the activity at 2 µM under setting [3] was 24.6%.
With `CC/C=C\C/C=C\C/C=C\C/C=C\C/C=C\C/C=C\CCC(=O)O` [DHA, docosahexaenoic acid], under setting [4], the activity at 1 µM was 95.9%. Also, under setting [5], the activity at 5 µM amounted to 91.5%. In addition, under setting [6], the activity at 25 µM is 66.2%.
Take `O=c1c(-c2ccc(O)cc2)coc2cc(O)cc(O)c12` [Genistein, genistein]: the “Effect on amount” value is given as “only minor effects”. Also, under setting [4], the activity at 1 µM was 112%. The activity at 5 µM under setting [5] was found to be 99.7%. Further, the activity at 25 µM under setting [6] was found to be 95.9%.
Regarding `Oc1ccc(C=Cc2cc(O)cc(O)c2)cc1` [Resveratrol, resveratrol], the “Effect on amount” value was “only minor effects”. The activity at 1 µM under setting [4] was determined as 106%. In addition, the activity at 5 µM under setting [5] was 102%. Further, the activity at 25 µM under setting [6] worked out at 103%.
Take `CC1=C[C@H](O)CC(C)(C)[C@H]1/C=C/C(C)=C/C=C/C(C)=C/C=C/C=C(C)/C=C/C=C(C)/C=C/C1=C(C)C[C@@H](O)CC1(C)C` [lutein]: the activity at 0.5 µM under setting [1] is 94.3%. Moreover, under setting [2], the activity at 1 µM came to 85.6%. The activity at 2 µM under setting [3] worked out at 72.1%.
As to `OCCc1ccc(O)c(O)c1` [Hydroxytyrosol], the activity at 1 µM under setting [4] is 103%. Under setting [5], the activity at 5 µM stood at 103%. Besides, the activity at 25 µM under setting [6] came to 68.3%.
For `CC/C=C\C/C=C\C/C=C\C/C=C\C/C=C\CCCC(=O)O` [EPA, eicosapentaenoic acid], the activity at 1 µM under setting [4] came out at 86.6%. In addition, under setting [5], the activity at 5 µM came out at 77%. For the same compound, under setting [6], the activity at 25 µM is 74.1%.

For the origin of these results see US20100015262A1, “NOVEL USE OF COMPOUNDS AND COMBINATIONS OF COMPOUNDS FOR IMPROVING THE PHYSICAL APPEARANCE” (priority 2006, published 2010).
